Laboratory results from patent US11578084B2, “Condensed ring compounds having dopamine D3 receptor antagonistic effect” (Shionogi & Co., Ltd., priority 2018, dated 2023).

Legend:
[1] = biological target: human recombinant dopamine D3 receptor (Homo sapiens (Human), UniProt P35462); assay: Test of binding inhibition for dopamine D3 receptor ([3H]-Methylspiperone SPA); settings: Jump-In HEK cell membranes, 2 nM [3H]-Methylspiperone, 120 min at 25° C.; read-out: hD3_Ki
How it was run: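 SPA radioligand binding on Jump-In HEK membranes expressing human D3 receptor (4 µg/well) with 2 nM [3H]-methylspiperone (final), incubated 120 min at 25 °C. Non-specific binding defined with 10 µM butaclamol. Percent inhibition computed against total and non-specific binding; Ki from dose-response curves.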

hERG channel (IKr) = hERG channel (IKr) (Homo sapiens (Human), UniProt Q12809); assay: hERG test (whole cell patch clamp, IKr); format: cell-based; settings: human, CHO cells expressing hERG channel, pH 7.4, 3 μM, tail peak current
Sequence of hERG channel (IKr) (Q12809 whole entry): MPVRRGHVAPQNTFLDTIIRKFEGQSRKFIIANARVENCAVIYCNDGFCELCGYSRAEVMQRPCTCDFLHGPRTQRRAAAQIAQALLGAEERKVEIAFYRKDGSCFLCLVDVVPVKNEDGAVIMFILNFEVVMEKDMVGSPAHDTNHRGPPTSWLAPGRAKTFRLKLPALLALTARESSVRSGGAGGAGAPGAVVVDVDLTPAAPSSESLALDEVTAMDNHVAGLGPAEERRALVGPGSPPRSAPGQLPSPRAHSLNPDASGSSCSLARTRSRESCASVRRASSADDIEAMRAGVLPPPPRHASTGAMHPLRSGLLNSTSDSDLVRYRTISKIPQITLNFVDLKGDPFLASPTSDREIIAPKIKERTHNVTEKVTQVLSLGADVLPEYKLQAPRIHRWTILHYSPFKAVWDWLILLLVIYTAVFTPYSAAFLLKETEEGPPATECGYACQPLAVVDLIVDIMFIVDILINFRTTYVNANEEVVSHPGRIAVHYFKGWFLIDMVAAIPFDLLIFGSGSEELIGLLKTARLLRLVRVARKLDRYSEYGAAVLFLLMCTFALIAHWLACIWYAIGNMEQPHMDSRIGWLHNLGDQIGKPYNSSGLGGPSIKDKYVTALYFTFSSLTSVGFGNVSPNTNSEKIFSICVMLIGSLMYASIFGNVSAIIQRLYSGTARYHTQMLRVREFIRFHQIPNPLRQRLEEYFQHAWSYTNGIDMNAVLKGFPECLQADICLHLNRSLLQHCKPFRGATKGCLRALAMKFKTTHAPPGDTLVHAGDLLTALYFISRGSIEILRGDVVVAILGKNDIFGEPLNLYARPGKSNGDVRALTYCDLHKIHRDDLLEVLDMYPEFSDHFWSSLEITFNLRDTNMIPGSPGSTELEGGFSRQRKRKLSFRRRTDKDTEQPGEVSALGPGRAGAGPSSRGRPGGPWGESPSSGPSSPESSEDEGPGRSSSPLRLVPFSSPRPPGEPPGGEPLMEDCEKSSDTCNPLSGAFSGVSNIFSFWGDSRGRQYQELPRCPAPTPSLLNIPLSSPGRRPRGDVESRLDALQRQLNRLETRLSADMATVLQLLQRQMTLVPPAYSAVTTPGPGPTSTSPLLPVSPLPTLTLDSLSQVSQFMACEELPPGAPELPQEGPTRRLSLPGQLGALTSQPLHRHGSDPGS
Text: Test Example 10: hERG Test
For the purpose of assessing risk of an electrocardiogram QT interval prolongation of the compound of the present invention, effects of the compound of the present invention on delayed rectifier K+ current (IKr), which plays an important role in the ventricular repolarization process, was studied using CHO cells expressing human ether-a-go-go related gene (hERG) channel.
After a cell was retained at a membrane potential of −80 mV by whole cell patch clamp method using an automated patch clamp system (QPatch; Sophion Bioscience A/S) and gave a leak potential of −50 mV, IKr induced by depolarization pulse stimulation at +20 mV for 2 seconds and, further, repolarization pulse stimulation at −50 mV for 2 seconds, was recorded. After the generated current was stabilized, extracellular solution (NaCl: 145 mmol/L, KCl: 4 mmol/L, CaCl2): 2 mmol/L, MgCl2: 1 mmol/L, glucose: 10 mmol/L, HEPES (4-(2-hydroxyethyl)-1-piperazineethanesulfonic acid): 10 mmol/L, pH=7.4), in which the compound of the present invention had been dissolved at an objective concentration in the extracellular solution, was applied to the cell at room temperature for 7 minutes or more. From the recording IKr, an absolute value of the tail peak current was measured based on the current value at the resting membrane potential using analysis software (QPatch Assay software; Sophion Bioscience A/S). Further, the % inhibition of tail peak current for the compound of the present invention relative to the tail peak current after application of the solution (0.1% dimethyl sulfoxide solution) was calculated to assess influence of the compound of the present invention on IKr.

[2] = biological target: human recombinant dopamine D2 receptor (Homo sapiens (Human), UniProt P14416); assay: Test of binding inhibition for dopamine D2 receptor ([3H]-Methylspiperone SPA); settings: Jump-In HEK cell membranes, 1.2 nM [3H]-Methylspiperone, 120 min at 25° C.; read-out: hD2_Ki
Sequence of human recombinant dopamine D2 receptor (P14416 whole entry): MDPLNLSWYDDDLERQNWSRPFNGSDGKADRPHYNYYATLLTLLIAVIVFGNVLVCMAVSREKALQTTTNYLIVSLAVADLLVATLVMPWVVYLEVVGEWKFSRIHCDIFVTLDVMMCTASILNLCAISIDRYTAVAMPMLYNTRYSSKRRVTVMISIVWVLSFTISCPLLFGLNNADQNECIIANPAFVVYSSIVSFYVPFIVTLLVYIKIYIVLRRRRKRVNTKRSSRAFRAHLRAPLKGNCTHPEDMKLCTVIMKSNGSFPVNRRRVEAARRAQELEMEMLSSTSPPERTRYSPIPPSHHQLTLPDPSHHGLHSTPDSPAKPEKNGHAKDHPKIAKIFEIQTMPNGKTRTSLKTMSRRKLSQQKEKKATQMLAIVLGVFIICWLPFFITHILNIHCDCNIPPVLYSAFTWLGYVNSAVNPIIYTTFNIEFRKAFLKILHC
How it was run: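 Incubation was 120 min at 25° C. with human recombinant D2 membranes from Jump-In HEK cells (2 μg/well), WGA SPA beads (0.2 mg/well) and [3H]-Methylspiperone as radioligand.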

Sequence of human recombinant dopamine D3 receptor (P35462 whole entry): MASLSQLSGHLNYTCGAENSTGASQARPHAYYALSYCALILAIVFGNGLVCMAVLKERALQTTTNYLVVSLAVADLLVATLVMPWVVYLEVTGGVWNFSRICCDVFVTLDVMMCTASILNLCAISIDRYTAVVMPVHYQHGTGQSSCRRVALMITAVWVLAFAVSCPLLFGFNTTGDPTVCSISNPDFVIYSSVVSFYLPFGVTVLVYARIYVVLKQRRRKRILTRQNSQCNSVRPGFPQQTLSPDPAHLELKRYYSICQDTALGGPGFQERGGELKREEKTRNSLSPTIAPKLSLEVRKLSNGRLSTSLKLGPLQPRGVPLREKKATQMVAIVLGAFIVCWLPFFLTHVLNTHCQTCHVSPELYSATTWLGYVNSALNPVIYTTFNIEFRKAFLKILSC

SMILES | Ki [1] [nM] | inhibition at 3 µM (hERG channel (IKr)) [%] | Ki [2] [nM]
CN1Cc2c(C(=O)N[C@H]3CC[C@H](CCN4CCc5sc(OC6CC(F)(F)C6)nc5C4)CC3)cccc2C1=O [Example I-001] | 0.2 | 21.3 | 290
Cn1cc2c(C(=O)N[C@H]3CC[C@H](CCN4CCc5ccc(OCC(C)(C)F)nc5CC4)CC3)cccc2n1 [Example I-003] | 0.15 | 31 | 780
Cn1cc(CC(=O)N[C@H]2CC[C@H](CCN3CCc4nc(OCC(C)(F)F)sc4CC3)CC2)cn1 [Example I-004] | 0.15 | 21.6 | 700
Cc1ncc(CC(=O)N[C@H]2CC[C@H](CCN3CCc4ccc(OC(C)C)nc4CC3)CC2)o1 [Example I-006] | 0.59 | 23 | > 1900
Cc1nnc(CC(=O)N[C@H]2CC[C@H](CCN3CCc4ccc(OC(C)C)nc4CC3)CC2)s1 [Example I-007] | 0.68 | 33.7 | 1500
Cc1nc(CC(=O)N[C@H]2CC[C@H](CCN3CCc4nc(OCC(C)(F)F)sc4CC3)OC2)no1 [Example I-008] | 0.96 | 20.8 | > 1900
Cn1cc2c(C(=O)N[C@H]3CC[C@H](CCN4CCc5nc(OCC(C)(F)F)sc5CC4)OC3)cccc2n1 [Example I-009] | 0.12 | 33.8 | 690
COc1cc(CC(=O)N[C@H]2CC[C@H](CCN3CCc4nc(OCC(C)(F)F)sc4CC3)OC2)on1 [Example I-010] | 0.13 | 32 | 930
Cc1nnc(CC(=O)N[C@H]2CC[C@H](CCN3CCc4sc(C5CC(F)(F)C5)nc4C3)OC2)o1 [Example I-011] | 0.32 | 10.6 | 950
CN1Cc2c(C(=O)N[C@H]3CC[C@H](CCN4CCc5sc(C6CC(F)(F)C6)nc5C4)CC3)cccc2C1=O [Example I-012] | 0.15 | 19 | 260
Cc1nc(CC(=O)N[C@H]2CC[C@](F)(CCN3CCc4nc(OCC(C)(F)F)sc4CC3)CC2)no1 [Example I-013] | 0.53 | 21.4 | 920
Cc1nnc(CC(=O)N[C@H]2CC[C@](F)(CCN3CCc4nc(OCC(C)(F)F)sc4CC3)CC2)o1 [Example I-014] | 0.48 | 3.83 | 980
Cc1cnc(CC(=O)N[C@H]2CC[C@](F)(CCN3CCc4nc(OCC(C)(F)F)sc4CC3)CC2)o1 [Example I-015] | 0.26 | 24.3 | 1000
Cn1cc2c(C(=O)NN3CCC(CCN4CCc5ccc(OCC(F)(F)F)nc5CC4)CC3)cccc2n1 [Example I-016] | 0.039 | 19.1 | 850
Cn1cc(CC(=O)N[C@H]2CC[C@](F)(CCN3CCc4ccc(OCC(C)(F)F)nc4CC3)CC2)cn1 [Example I-017] | 0.063 | 21.6 | 240
Cc1nnc(CC(=O)N[C@H]2CC[C@](F)(CCN3CCc4ccc(OCC(C)(F)F)nc4CC3)CC2)s1 [Example I-018] | 0.035 | 33.8 | 190
Cc1ncccc1C(=O)N[C@H]1CC[C@H](CCN2CCc3nc(OC4CC(F)(F)C4)sc3CC2)CC1 [Example I-019] | 0.37 | 8.86 | > 1800
Cc1nnc(CC(=O)N[C@H]2CC[C@H](CCN3CCc4nc(OC5CC(F)(F)C5)sc4CC3)CC2)o1 [Example I-020] | 0.27 | 23.1 | > 1800
Cn1cc(CC(=O)N[C@H]2CC[C@H](CCN3CCc4nc(OC5CC(F)(F)C5)sc4CC3)CC2)cn1 [Example I-021] | 0.15 | 24.3 | 1900
Cc1cc(OCC(=O)N[C@H]2CC[C@H](CCN3CCc4nc(OC5CC(F)(F)C5)sc4CC3)CC2)no1 [Example I-022] | 0.1 | 32.6 | > 2300
Cn1ncc(CC(=O)N[C@H]2CC[C@H](CCN3CCc4nc(OC5CC(F)(F)C5)sc4CC3)CC2)n1 [Example I-023] | 0.11 | 16.5 | > 2200

SMILES | Ki [1] [nM] | inhibition at 3 µM (hERG channel (IKr)) [%] | Ki [2] [nM]
Cc1nc(CC(=O)N[C@H]2CC[C@](F)(CCN3CCc4ccc(OCC(F)F)nc4CC3)CC2)no1 [Example I-024] | 0.2 | 18.7 | > 2200
Cc1nnc(CC(=O)N[C@H]2CC[C@](F)(CCN3CCc4ccc(OCC(F)F)nc4CC3)CC2)o1 [Example I-025] | 0.46 | 14.9 | 820
Cc1ncc(CC(=O)N[C@H]2CC[C@](F)(CCN3CCc4ccc(OCC(F)F)nc4CC3)CC2)o1 [Example I-026] | 0.095 | 20.1 | 1100
Cn1cc(CC(=O)N[C@H]2CC[C@](F)(CCN3CCc4ccc(OCC(F)F)nc4CC3)CC2)cn1 [Example I-027] | 0.23 | 14.3 | 1000
Cn1cc2c(C(=O)NN3CCC(F)(CCN4CCc5sc(OCC(F)(F)F)nc5C4)CC3)cccc2n1 [Example I-028] | 0.41 | 9.09 | 640
Cn1c(C(=O)N[C@H]2CC[C@](F)(CCN3CCc4ccc(OCC(F)F)nc4CC3)CC2)cccc1=O [Example I-029] | 0.36 | 8.37 | 610
Cc1ncc(OCC(=O)N[C@H]2CC[C@](F)(CCN3CCc4ccc(OCC(F)F)nc4CC3)CC2)cn1 [Example I-030] | 0.3 | 26.1 | 610
Cn1cc(CC(=O)N[C@H]2CC[C@H](CCN3CCc4ccc(OC5CCC5)nc4CC3)CC2)cn1 [Example I-032] | 0.48 | 31.9 | > 2200
Cc1ncc(CC(=O)N[C@H]2CC[C@H](CCN3CCc4ccc(OC5CCC5)nc4CC3)CC2)o1 [Example I-033] | 0.78 | 12.2 | > 2200
Cc1ncccc1C(=O)N[C@H]1CC[C@H](CCN2CCc3nc(OCC(C)(F)F)sc3CC2)CC1 [Example I-034] | 0.36 | 34.3 | 560
Cn1cc2c(C(=O)N[C@H]3CC[C@H](CCN4CCc5sc([C@H]6C[C@@H](F)C6)nc5C4)CC3)cccc2n1 [Example I-035] | 0.18 | 16 | 210
Cc1cnc(CC(=O)N[C@H]2CC[C@H](CCN3CCc4nc(OCC(C)(F)F)sc4CC3)CC2)o1 [Example I-036] | 0.54 | 29.8 | 910
Cc1ncc(/C=C/C(=O)N[C@H]2CC[C@H](CCN3CCc4nc(OCC(C)(F)F)sc4CC3)CC2)cn1 [Example I-037] | 0.097 | 28 | 240
Cc1cnc(CC(=O)N[C@H]2CC[C@](F)(CCN3CCc4nc(OCC(F)F)sc4CC3)CC2)o1 [Example I-038] | 0.81 | 21.4 | > 1700
Cc1nc(CC(=O)N[C@H]2CC[C@](F)(CCN3CCc4nc(OCC(F)F)sc4CC3)CC2)no1 [Example I-039] | 1 | 22.3 | 1200
Cc1nnc(CC(=O)N[C@H]2CC[C@](F)(CCN3CCc4nc(OCC(F)F)sc4CC3)CC2)s1 [Example I-040] | 0.46 | 23.2 | 890
Cc1cnc(CC(=O)N[C@H]2CC[C@H](CCN3CCc4sc(C5CC(F)(F)C5)nc4C3)CC2)o1 [Example I-041] | 0.17 | 18.1 | 620
Cc1ncccc1C(=O)N[C@H]1CC[C@](F)(CCN2CCc3nc(OCC(C)(F)F)sc3CC2)CC1 [Example I-042] | 0.57 | 10.8 | 1000
Cc1ncc(CC(=O)N[C@H]2CC[C@](F)(CCN3CCc4nc(OCC(C)(F)F)sc4CC3)CC2)o1 [Example I-043] | 0.12 | 20.7 | 970
Cc1ncc(OCC(=O)N[C@H]2CC[C@](F)(CCN3CCc4nc(OCC(C)(F)F)sc4CC3)CC2)cn1 [Example I-044] | 0.14 | 23.7 | 610
Cc1cnc(OCC(=O)N[C@H]2CC[C@H](CCN3CCc4sc(OCC(C)(F)F)nc4C3)CC2)cn1 [Example I-046] | 0.34 | 14.3 | 500
